Experimental data reported in patent US8653274B2, “Compounds suitable as precursors to compounds that are useful for imaging amyloid deposits” (AstraZeneca AB, priority 2008, dated 2014).
pIC50: −log10 of the molar value.

Target: amyloid deposits (Homo sapiens, UniProt P05067)
Test: competition binding assay described in WO2007/086800
Conditions: unlabeled compound

amyloid deposits, sequence (P05067 672-711 limits assumed): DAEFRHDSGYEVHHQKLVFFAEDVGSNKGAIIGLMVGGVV

pIC50: 7.89
Compound: CNc1ccc(-c2cc3cc(O)ccc3o2)c(F)n1 [2-(2-Fluoro-6-methylamino-pyridin-3-yl)-benzofuran-5-ol]
